Assay results published in patent US8546377B2 (AbbVie Inc., priority 2009, dated 2013).
pEC50: −log10 of the molar value. Read-outs that look alike come from different tables or passages of the source.

Assays:
5HT2C receptors = target: T1, 5HT2C receptors (Homo sapiens, UniProt P28335); experiment: Human 5-HT2C functional assay in CHO-K1 cells (calcium flux, FLIPR); assay type: cell-based; design: expressed in transfected cells; host or cells: CHO-K1 cells; conditions: for Emax: percentage relative to the effect of serotonin; for EC50: CHO-K1 cells over-expressing 5HT2C, calcium flux, read-out: EC50 (μM), 5-HT2c Agonist Activity
T1 sequence (P28335 33-458): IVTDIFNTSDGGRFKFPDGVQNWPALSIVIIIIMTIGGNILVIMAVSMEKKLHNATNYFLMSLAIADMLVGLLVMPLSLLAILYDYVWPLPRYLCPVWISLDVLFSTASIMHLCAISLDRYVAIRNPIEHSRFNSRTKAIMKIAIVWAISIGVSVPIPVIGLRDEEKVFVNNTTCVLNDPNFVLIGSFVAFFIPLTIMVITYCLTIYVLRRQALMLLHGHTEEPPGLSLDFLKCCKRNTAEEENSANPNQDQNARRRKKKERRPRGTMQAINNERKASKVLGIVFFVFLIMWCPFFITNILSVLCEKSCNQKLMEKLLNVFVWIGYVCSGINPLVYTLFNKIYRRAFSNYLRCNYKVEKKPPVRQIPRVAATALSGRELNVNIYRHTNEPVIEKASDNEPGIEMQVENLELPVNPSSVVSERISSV
Protocol: (§1) (iii) Human 5-HT2C and 5-HT2B Functional Assay in CHO-K1 Cells
(§2) CHO-K1 cells over-expressing 5HT2C or 5HT2B receptors were grown in 1272 cm^2 flasks to 70-80% confluency in UltraCHO media supplemented with 1% dialyzed fetal bovine serum (FBS), 250 μg/mL zeocin, 100 U/mL penicillin/streptomycin, and 400 μg/mL geneticin. The cells were dissociated from the flasks using 0.05% trypsin, resuspended in freezing media and stored in liquid nitrogen until use. Calcium flux experiments were done using frozen cells. The cells were diluted in media containing 1% dialyzed FBS and 100 U/mL penicillin/streptomycin and plated into 384-well poly-D-Lysine coated plates (15,000 cells/well). Then the plates were incubated overnight in a cell incubator at 37° C., 5% CO2. On the next day, the growth media was replaced with media without FBS and further incubated overnight. On day three, the changes in intracellular Ca^2+ were determined using calcium sensitive fluorescent dye, Ca4 (MDS Analytical Technologies, Sunnyvale, Calif.) by loading 15 μL of diluted dye with 2.5 mM probenecid into the cells containing media and incubated at room temperature for 60 minutes in dark.
(§3) Fluorescence measurements were read at 25° C. at an excitation wavelength of 480 nm and an emission wavelength of 530 nm in FLIPR (MDS). Baseline fluorescence was measured for the first 10 seconds and then 15 μL of 4× concentrations of serotonin/test compounds was added to the cell plate. The fluorescence intensity was captured every second for the first 1 minute followed by every 5 seconds for an additional 2 minutes. The increase in fluorescent response was determined and was normalized to the response of serotonin. The concentration response of compounds was done from a starting concentration of 10 μM, 1:10 dilution across 6 wells with a final dimethyl sulfoxide concentration of 0.2% and was fitted using a 4-parameter logistic equation. The concentration at which a compound exerts half its maximal effect was named as ‘effective concentration 50’ or ‘EC50’.
(§4) Emax is the maximum functional response or efficacy expressed as a percentage relative to the effect of serotonin.

5HT2B receptors = target: T2, 5HT2B receptors (Homo sapiens, UniProt P41595); experiment: Human 5-HT2B functional assay in CHO-K1 cells (calcium flux, FLIPR); assay type: cell-based; conditions: for EC50: CHO-K1 cells over-expressing 5HT2B, calcium flux, read-out: EC50 (μM), 5-HT2B Agonist Activity
T2 construct: expressed in transfected cells; host or cells: CHO-K1 cells
Protocol: as §1, §2, §3, §4

[1] = CHO-K1, read-out: Emax (%), 5-HT2c Agonist Activity, CHO-K1 cells
[2] = CHO-K1, read-out: Emax (%), 5-HT2B Agonist Activity
[3] = CHO-K1 cells, read-out: Emax (%), 5-HT2c Agonist Activity
[4] = CHO-K1 cells, percentage relative to the effect of serotonin, read-out: Emax (%), 5-HT2B Agonist Activity

T2 sequence (P41595 whole entry): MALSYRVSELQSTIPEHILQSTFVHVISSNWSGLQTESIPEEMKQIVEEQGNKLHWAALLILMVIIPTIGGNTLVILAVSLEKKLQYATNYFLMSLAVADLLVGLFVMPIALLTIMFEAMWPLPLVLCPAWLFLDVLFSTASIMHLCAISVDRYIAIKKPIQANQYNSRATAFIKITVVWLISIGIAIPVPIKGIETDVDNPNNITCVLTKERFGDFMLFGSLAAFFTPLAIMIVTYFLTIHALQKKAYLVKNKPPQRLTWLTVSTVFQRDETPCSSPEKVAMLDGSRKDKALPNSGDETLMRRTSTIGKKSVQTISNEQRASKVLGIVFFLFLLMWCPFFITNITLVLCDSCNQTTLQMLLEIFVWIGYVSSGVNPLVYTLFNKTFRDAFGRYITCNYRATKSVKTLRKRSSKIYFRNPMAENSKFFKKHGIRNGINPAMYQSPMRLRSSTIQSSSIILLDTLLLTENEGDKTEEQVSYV

SMILES | Emax (5HT2C receptors; [1]) [%] | EC50 (5HT2C receptors) [µM] | EC50 (5HT2B receptors) [µM] | pEC50 (5HT2C receptors) | pEC50 (5HT2B receptors) | Emax (5HT2B receptors; [2]) [%] | Emax (5HT2C receptors; [3]) [%] | Emax (5HT2B receptors; [4]) [%]
O=C1NC[C@@H]2CNCC[C@@H]2c2ccccc21 (relative stereo) [Example 180, cis-1,2,3,4,4a,5,6,11b-octahydro-7H-pyrido[3,4-d][2]benzazepin-7-one] | > 120 | 0.2 | > 10 |  |  |  |  | 
C[C@@H]1C[C@H]2CNCCN2c2ccccc2O1 (single isomer, unassigned) [Example 252] | 105 |  |  | 8.22 | 7.22 | 40 |  | 
C[C@H]1C[C@H]2CNCCN2c2ccccc2O1 (single isomer, unassigned) [Example 253] | 100 |  |  | 7.05 | < 5.00 |  |  | 
Cc1ccc2c(c1)NC(=O)CC1CNCCN21 (stereo not drawn) [Example 49, 9-methyl-1,2,3,4,4a,5-hexahydropyrazino[1,2-a][1,5]benzodiazepin-6(7H)-one] | 100 |  |  | 7.22 | < 5.00 |  |  | 
CCOC(=O)c1ccc2c(c1)N1CCNCC1CC(=O)N2 (stereo not drawn) [Example 50, ethyl 6-oxo-1,2,3,4,4a,5,6,7-octahydropyrazino[1,2-a][1,5]-benzodiazepine-10-carboxylate] |  | 0.2 | > 10 |  |  |  | 80 | 
O=C1CC2CNCCN2c2ccc(Cl)cc2N1 (stereo not drawn) [Example 51, 9-chloro-1,2,3,4,4a,5-hexahydropyrazino[1,2-a][1,5]benzodiazepin-6(7H)-one] | 90 |  |  | 7.15 | < 5.00 |  |  | 
O=C1CC2CNCCN2c2cc(C3CC3)ccc2N1 (stereo not drawn) [Example 52, 10-cyclopropyl-1,2,3,4,4a,5-hexahydropyrazino[1,2-a][1,5]benzodiazepin-6(7H)-one] |  | 0.05 | > 10 |  |  |  | > 80 | 
Cc1cccc2c1N1CCNCC1CC(=O)N2 (stereo not drawn) [Example 53, 11-methyl-1,2,3,4,4a,5-hexahydropyrazino[1,2-a][1,5]benzodiazepin-6(7H)-one] | > 120 |  |  | 8.22 | 5.52 | 60 |  | 
Brc1ccc2c(c1)NCC[C@H]1CNCCN21 [Example 54, (4aS)-9-bromo-1,2,3,4,4a,5,6,7-octahydropyrazino[1,2-a][1,5]benzodiazepine] | 110 |  |  | 7.15 | < 5.00 |  |  | 
O=C1C[C@H]2CNCCN2c2ccc(Cl)cc2N1 [Example 55, (4aS)-9-chloro-1,2,3,4,4a,5-hexahydropyrazino[1,2-a][1,5]benzodiazepin-6(7H)-one] | > 120 |  |  | 7.70 | < 5.00 |  |  | 
O=C1CC2CNCCN2c2cc(-c3cnn(Cc4ccccc4)c3)ccc2N1 (stereo not drawn) [Example 56, 10-(1-benzyl-1H-pyrazol-4-yl)-1,2,3,4,4a,5-hexahydropyrazino[1,2-a][1,5]benzodiazepin-6(7H)-one] |  | 1 | > 10 |  |  |  | 110 | 
O=C1CC2CNCCN2c2cc(-c3ccc4ccccc4c3)ccc2N1 (stereo not drawn) [Example 57, 10-(2-naphthyl)-1,2,3,4,4a,5-hexahydropyrazino[1,2-a][1,5]benzodiazepin-6(7H)-one] |  | 0.9 | > 10 |  |  |  | 100 | 
COc1ccc(-c2ccc3c(c2)N2CCNCC2CC(=O)N3)cc1 (stereo not drawn) [Example 58, 10-(4-methoxyphenyl)-1,2,3,4,4a,5-hexahydropyrazino[1,2-a][1,5]benzodiazepin-6(7H)-one] |  | 0.2 | > 10 |  |  |  | 110 | 
O=C1CC2CNCCN2c2cc(-c3cccc(-c4ccccc4)c3)ccc2N1 (stereo not drawn) [Example 59, 10-(biphenyl-3-yl)-1,2,3,4,4a,5-hexahydropyrazino[1,2-a][1,5]benzodiazepin-6(7H)-one] |  | 0.04 | > 10 |  |  |  | > 120 | 
Cn1cc(-c2ccc3c(c2)N2CCNCC2CC(=O)N3)cn1 (stereo not drawn) [Example 60, 10-(1-methyl-1H-pyrazol-4-yl)-1,2,3,4,4a,5-hexahydropyrazino[1,2-a][1,5]benzodiazepin-6(7H)-one] |  | 0.4 | 3 |  |  |  | > 120 | 50
O=C1CC2CNCCN2c2cc(-c3cccc(F)c3)ccc2N1 (stereo not drawn) [Example 61, 10-(3-fluorophenyl)-1,2,3,4,4a,5-hexahydropyrazino[1,2-a][1,5]benzodiazepin-6(7H)-one] |  | 0.1 | > 10 |  |  |  | > 120 | 
O=C1CC2CNCCN2c2cc(-c3cnc4ccccc4c3)ccc2N1 (stereo not drawn) [Example 62, 10-(quinolin-3-yl)-1,2,3,4,4a,5-hexahydropyrazino[1,2-a][1,5]benzodiazepin-6(7H)-one] |  | 0.06 | 0.9 |  |  |  | > 120 | 60
COc1ccccc1-c1ccc2c(c1)N1CCNCC1CC(=O)N2 (stereo not drawn) [Example 63, 10-(2-methoxyphenyl)-1,2,3,4,4a,5-hexahydropyrazino[1,2-a][1,5]benzodiazepin-6(7H)-one] |  | 0.09 | > 10 |  |  |  | 110 | 
O=C1CC2CNCCN2c2cc(-c3ccccc3-c3ccccc3)ccc2N1 (stereo not drawn) [Example 64, 10-(biphenyl-2-yl)-1,2,3,4,4a,5-hexahydropyrazino[1,2-a][1,5]benzodiazepin-6(7H)-one] |  | 0.03 | 1 |  |  |  | 110 | 15
COc1cccc(-c2ccc3c(c2)N2CCNCC2CC(=O)N3)c1 (stereo not drawn) [Example 65, 10-(3-methoxyphenyl)-1,2,3,4,4a,5-hexahydropyrazino[1,2-a][1,5]benzodiazepin-6(7H)-one] |  | 0.05 | > 10 |  |  |  | > 120 | 
O=C1CC2CNCCN2c2cc(-c3csc4ccccc34)ccc2N1 (stereo not drawn) [Example 66, 10-(1-benzothiophen-3-yl)-1,2,3,4,4a,5-hexahydropyrazino[1,2-a][1,5]benzodiazepin-6(7H)-one] |  | 0.09 | > 10 |  |  |  | 100 | 
O=C1CC2CNCCN2c2cc(-c3cccc4ccccc34)ccc2N1 (stereo not drawn) [Example 67, 10-(1-naphthyl)-1,2,3,4,4a,5-hexahydropyrazino[1,2-a][1,5]benzodiazepin-6(7H)-one] |  | 0.2 | > 10 |  |  |  | 110 | 
O=C1CC2CNCCN2c2cc(-c3cccc4[nH]ccc34)ccc2N1 (stereo not drawn) [Example 68, 10-(1H-indol-4-yl)-1,2,3,4,4a,5-hexahydropyrazino[1,2-a][1,5]benzodiazepin-6(7H)-one] |  | 0.09 | > 10 |  |  |  | > 120 | 
O=C1CC2CNCCN2c2cc(-c3ccoc3)ccc2N1 (stereo not drawn) [Example 69, 10-(3-furyl)-1,2,3,4,4a,5-hexahydropyrazino[1,2-a][1,5]benzodiazepin-6(7H)-one] |  | 0.02 | 0.09 |  |  |  | 110 | 80
O=C1CC2CNCCN2c2cc(-c3ccccc3F)ccc2N1 (stereo not drawn) [Example 70, 10-(2-fluorophenyl)-1,2,3,4,4a,5-hexahydropyrazino[1,2-a][1,5]benzodiazepin-6(7H)-one] |  | 0.06 | > 10 |  |  |  | > 120 | 
O=C1CC2CNCCN2c2cc(-c3ccccn3)ccc2N1 (stereo not drawn) [Example 71, 10-(pyridin-2-yl)-1,2,3,4,4a,5-hexahydropyrazino[1,2-a][1,5]benzodiazepin-6(7H)-one] | > 120 |  |  | 8.70 | 7.70 | 100 |  | 
O=C1CC2CNCCN2c2cc(/C=C/c3ccccc3F)ccc2N1 (stereo not drawn) [Example 141, 10-[(E)-2-(2-fluorophenyl)vinyl]-1,2,3,4,4a,5-hexahydropyrazino[1,2-a][1,5]benzodiazepin-6(7H)-one] |  | 0.004 |  |  |  |  | 88 | 
